Reference: ChEMBL document CHEMBL4420071, “Method for treating skin with retinoids and retinoid boosters” (2013)
Blank lines part the entries; values can stand above or below the compound they belong to.

Assays:
[1] = species on record: Homo sapiens; assay: Inhibition of transglutaminase in human keratinocytes assessed as mean transglutaminase activity level at 3.73 10^-4M in presence of 10 uM retinal relative to retinal alone; type: cell-based; set-up: scale not given: the % may be the effect or the level left
[2] = species on record: Homo sapiens; assay: Inhibition of transglutaminase in human keratinocytes assessed as mean transglutaminase activity level at 9.1 10^-4M in presence of 10 uM retinal relative to retinal alone; type: cell-based; set-up: scale not given: the % may be the effect or the level left
[3] = species on record: Homo sapiens; assay: Inhibition of transglutaminase in human keratinocytes assessed as mean transglutaminase activity level at 1.23 10^-4M in presence of 10 uM retinal relative to retinal alone; type: cell-based; set-up: scale not given: the % may be the effect or the level left
[4] = species on record: Homo sapiens; assay: Inhibition of transglutaminase in human keratinocytes assessed as mean transglutaminase activity level at 3.1 10^-5M in presence of 10 uM retinal relative to retinal alone; type: cell-based; set-up: scale not given: the % may be the effect or the level left
[5] = species on record: Homo sapiens; assay: Inhibition of transglutaminase in human keratinocytes assessed as mean transglutaminase activity level at 1.2 10^-5M in presence of 10 uM retinal relative to retinal alone; type: cell-based; set-up: scale not given: the % may be the effect or the level left
[6] = species on record: Homo sapiens; assay: Inhibition of transglutaminase in human keratinocytes assessed as mean transglutaminase activity level at 3.65 10^-6M in presence of 10 uM retinal relative to retinal alone; type: cell-based; set-up: scale not given: the % may be the effect or the level left
[7] = species on record: Homo sapiens; assay: Inhibition of transglutaminase in human keratinocytes assessed as mean transglutaminase activity level at 1.29 10^-6M in presence of 10 uM retinal relative to retinal alone; type: cell-based; set-up: scale not given: the % may be the effect or the level left
[8] = species on record: Homo sapiens; assay: Inhibition of transglutaminase in human keratinocytes assessed as mean transglutaminase activity level at 2 10^-7M in presence of 10 uM retinal relative to retinal alone; type: cell-based; set-up: scale not given: the % may be the effect or the level left
[9] = species on record: Homo sapiens; assay: Inhibition of transglutaminase in human keratinocytes assessed as mean transglutaminase activity level at 5.1 10^-8M in presence of 10 uM retinal relative to retinal alone; type: cell-based; set-up: scale not given: the % may be the effect or the level left
[10] = species on record: Homo sapiens; assay: Inhibition of transglutaminase in human keratinocytes assessed as mean transglutaminase activity level at 1 10^-8M in presence of 10 uM retinal relative to retinal alone; type: cell-based; set-up: scale not given: the % may be the effect or the level left
[11] = target: T1, Cellular retinoic acid-binding protein 2 (Homo sapiens) (UniProt P29373); assay: Inhibition of radioactive all-trans retinoic acid binding to CRABP2 (unknown origin) expressed in Escherichia coli BLR(DE3)pLys incubated for 1 hr by scintillation counting assay; conditions: concentration not given here
T1 sequence (whole entry): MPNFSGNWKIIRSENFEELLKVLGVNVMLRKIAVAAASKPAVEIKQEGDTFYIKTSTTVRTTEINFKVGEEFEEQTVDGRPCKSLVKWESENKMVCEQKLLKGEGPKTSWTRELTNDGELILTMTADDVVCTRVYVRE

[12] = species on record: Homo sapiens; assay: Inhibition of transglutaminase in human keratinocytes assessed as mean transglutaminase activity level at 1.23 10^-5M in presence of 10 uM retinal relative to retinal alone; type: cell-based; set-up: scale not given: the % may be the effect or the level left
[13] = species on record: Homo sapiens; assay: Inhibition of transglutaminase in human keratinocytes assessed as mean transglutaminase activity level at 4.1 10^-5M in presence of 10 uM retinal relative to retinal alone; type: cell-based; set-up: scale not given: the % may be the effect or the level left
[14] = species on record: Homo sapiens; assay: Inhibition of transglutaminase in human keratinocytes assessed as mean transglutaminase activity level at 8.2 10^-6M in presence of 10 uM retinal relative to retinal alone; type: cell-based; set-up: scale not given: the % may be the effect or the level left
[15] = species on record: Homo sapiens; assay: Inhibition of transglutaminase in human keratinocytes assessed as mean transglutaminase activity level at 1.65 10^-7M in presence of 10 uM retinal relative to retinal alone; type: cell-based; set-up: scale not given: the % may be the effect or the level left
[16] = species on record: Homo sapiens; assay: Inhibition of transglutaminase in human keratinocytes assessed as mean transglutaminase activity level at 3.29 10^-7M in presence of 10 uM retinal relative to retinal alone; type: cell-based; set-up: scale not given: the % may be the effect or the level left
[17] = species on record: Homo sapiens; assay: Inhibition of transglutaminase in human keratinocytes assessed as mean transglutaminase activity level at 5.0 10^-8M in presence of 10 uM retinal relative to retinal alone; type: cell-based; set-up: scale not given: the % may be the effect or the level left
[18] = species on record: Homo sapiens; assay: Inhibition of transglutaminase in human keratinocytes assessed as mean transglutaminase activity level at 1.1 10^-8M in presence of 10 uM retinal relative to retinal alone; type: cell-based; set-up: scale not given: the % may be the effect or the level left
[19] = species on record: Homo sapiens; assay: Inhibition of transglutaminase in human keratinocytes assessed as mean transglutaminase activity level at 2 10^-8M in presence of 10 uM retinal relative to retinal alone; type: cell-based; set-up: scale not given: the % may be the effect or the level left
[20] = species on record: Homo sapiens; assay: Inhibition of transglutaminase in human keratinocytes assessed as mean transglutaminase activity level at 4.3 10^-9M in presence of 10 uM retinal relative to retinal alone; type: cell-based; set-up: scale not given: the % may be the effect or the level left
[21] = species on record: Homo sapiens
[22] = species on record: Homo sapiens; assay: Inhibition of transglutaminase in human keratinocytes assessed as mean transglutaminase activity level at 1.4 10^-2M in presence of 10 uM retinal relative to retinal alone; type: cell-based; set-up: scale not given: the % may be the effect or the level left
[23] = species on record: Homo sapiens; assay: Inhibition of transglutaminase in human keratinocytes assessed as mean transglutaminase activity level at 4.8 10^-3M in presence of 10 uM retinal relative to retinal alone; type: cell-based; set-up: scale not given: the % may be the effect or the level left
[24] = species on record: Homo sapiens; assay: Inhibition of transglutaminase in human keratinocytes assessed as mean transglutaminase activity level at 1 10^-3M in presence of 10 uM retinal relative to retinal alone; type: cell-based; set-up: scale not given: the % may be the effect or the level left

Activity [1]: 69.3% | Activity [2]: 46.6% | Activity [3]: 51% | Activity [4]: 96% | Activity [5]: 105% | Activity [6]: 63% | Activity [7]: 80% | Activity [8]: 142% | Activity [9]: 64% | Activity [10]: 58%
SMILES: CCCCCCCCCCCCCCCCC(O)C(=O)O (stereo unspecified)

inhibition [11]: > 50% | Activity [12]: -5.2% | Activity [13]: 32.4% | Activity [14]: 97.6% | Activity [15]: 90.2% | Activity [16]: 82% | Activity [17]: 81% | Activity [18]: 98% | Activity [19]: 118% | Activity [20]: 71%
SMILES: CCCCCCC(O)CCCCCCCCCCC(=O)O (stereo unspecified)
IC20 [21]: 1.45 ×10⁻⁵ M

Activity [1]: 101% | Activity [12]: 82% | Activity [13]: 98% | Activity [14]: 109% | Activity [15]: 80% | Activity [16]: 93% | Activity [22]: 21.5% | Activity [23]: 93.8% | Activity [24]: 124%
SMILES: COc1cc(C=O)ccc1O
IC20 [21]: 8.47 ×10⁻³ M
